Calls of active or inactive are those of the source. The rule behind the calls is not given here.
Assays:
[1] = target: Tyrosine-protein kinase Fyn (Homo sapiens) (UniProt P06241); test: Inhibition of human FYN at 0.1 uM relative to control
[2] = system: Platelet-derived growth factor receptor alpha (Homo sapiens), P16234 [D842V]; test: Inhibition of human PDGFRA D842V mutant at 0.1 uM relative to control
Mus musculus [3] = test: Antitumor activity against human MOLM13 cells xenografted in SCID mouse assessed as increase in survival at 25 mg/kg, po qd administered on day 8 to 12 relative to vehicle-treated control; format: functional, MOLM-13
[4] = target: Tyrosine-protein kinase Yes (Homo sapiens) (UniProt P07947); test: Inhibition of human YES1 at 0.1 uM relative to control
[5] = target: Receptor-type tyrosine-protein kinase FLT3 (Homo sapiens, UniProt P36888, F691L); test: Inhibition of FLT3 ITD F691L mutant (unknown origin) phosphorylation expressed in HEK293T cells preincubated for 1 hr followed by FLT3 ligand addition for 5 mins by Western blot analysis; format: cell-based, HEK-293T
[6] = target: Receptor-type tyrosine-protein kinase FLT3 (Homo sapiens, UniProt P36888, D835Y); test: Inhibition of FLT3 ITD D835Y mutant (unknown origin) phosphorylation expressed in HEK293T cells preincubated for 1 hr followed by FLT3 ligand addition for 5 mins by Western blot analysis; format: cell-based, HEK-293T
[7] = Cmax in Sprague-Dawley rat at 10 mg/kg, po; format: ADME, organism-based; set-up: dose 10 mg/kg, route oral; details: in vivo
[8] = target: Platelet-derived growth factor receptor beta (Homo sapiens) (UniProt P09619); test: Inhibition of human PDGFRbeta at 0.1 uM relative to control
[9] = Volume of distribution at steady state in Sprague-Dawley rat at 2 mg/kg, iv; format: ADME, organism-based; details: in vivo, read-out: Vdss
[10] = Half life in Sprague-Dawley rat at 10 mg/kg, po; format: ADME, organism-based; details: in vivo
MV4-11 [11] = test: Antitumor activity against human MV4-11 cells xenografted in nude mouse assessed as tumor regression at 25 mg/kg, po qd administered on day 8 to 12 measured during 48 days post last dose; format: functional, organism-based
[12] = target: Serine/threonine-protein kinase Sgk1 (Homo sapiens) (UniProt O00141); test: Inhibition of human SGK1 at 0.1 uM relative to control
[13] = system: Proto-oncogene tyrosine-protein kinase receptor Ret (Homo sapiens), P07949 [V804L]; test: Inhibition of human RET V804L mutant at 0.1 uM relative to control
[14] = target: Receptor-type tyrosine-protein kinase FLT3 (Homo sapiens) (UniProt P36888); details: RS4:11 cell
Description: Inhibition of wild type homozygous FLT3 in human RS4:11 cells assessed as cell growth inhibition after 72 hrs by MTS assay

[15] = target: High affinity nerve growth factor receptor (Homo sapiens) (UniProt P04629); test: Inhibition of human NTRK1 at 0.1 uM relative to control
[16] = target: Glycogen synthase kinase-3 beta (Homo sapiens) (UniProt P49841); test: Inhibition of human GSK3B at 0.1 uM relative to control
[17] = target: Vascular endothelial growth factor receptor 1 (Homo sapiens) (UniProt P17948); test: Inhibition of human FLT1 at 0.1 uM relative to control
Mus musculus [18] = test: Toxicity in nude mouse allografted with mouse 32D cells expressing FLT3 ITD D835Y mutant at 10 mg/kg/day, po administered 5 days on/2 days off schedule for 4 weeks measured daily during compound dosing; format: organism-based; details: in vivo
[19] = target: Receptor-type tyrosine-protein kinase FLT3 (Homo sapiens, UniProt P36888, ITD); test: Inhibition of FLT3 ITD mutant (unknown origin) phosphorylation expressed in HEK293T cells preincubated for 1 hr followed by FLT3 ligand addition for 5 mins by Western blot analysis; format: cell-based, HEK-293T
[20] = target: Serine/threonine-protein kinase Chk1 (Homo sapiens) (UniProt O14757); test: Inhibition of human CHK1 at 0.1 uM relative to control
[21] = target: Dual specificity protein kinase CLK2 (Homo sapiens) (UniProt P49760); test: Inhibition of human CLK2 at 0.1 uM relative to control
[22] = target: Mast/stem cell growth factor receptor Kit (Homo sapiens) (UniProt P10721); test: Inhibition of human KIT at 0.1 uM relative to control
[23] = target: Tyrosine-protein kinase JAK2 (Homo sapiens) (UniProt O60674); test: Inhibition of human JAK2 at 0.1 uM relative to control
[24] = Volume of distribution at steady state in ICR mouse at 2 mg/kg, iv; format: ADME, organism-based; details: in vivo, read-out: Vdss
[25] = target: Tyrosine-protein kinase receptor TYRO3 (Homo sapiens) (UniProt Q06418); test: Inhibition of human TYRO3 at 0.1 uM relative to control
[26] = system: Proto-oncogene tyrosine-protein kinase receptor Ret (Homo sapiens), P07949 [Y791F]; test: Inhibition of human RET Y791F mutant at 0.1 uM relative to control
[27] = system: Receptor-type tyrosine-protein kinase FLT3 (Homo sapiens), P36888 [D835F]
MV4-11 [28] = test: Antitumor activity against human MV4-11 cells xenografted in nude mouse assessed as tumor growth inhibition at 10 mg/kg, po qd administered on day 1 to 5 measured during compound dosing; format: functional, organism-based
[29] = target: RAC-alpha serine/threonine-protein kinase (Homo sapiens) (UniProt P31749); test: Inhibition of human AKT1 at 0.1 uM relative to control
[30] = Oral bioavailability in ICR mouse at 10 mg/kg; format: ADME, organism-based; details: in vivo
[31] = target: Mitogen-activated protein kinase 8 (Homo sapiens) (UniProt P45983); test: Inhibition of human MAPK8 at 0.1 uM relative to control
[32] = target: Glycogen synthase kinase-3 alpha (Homo sapiens) (UniProt P49840); test: Inhibition of human GSK3A at 0.1 uM relative to control
[33] = target: Interleukin-1 receptor-associated kinase 4 (Homo sapiens) (UniProt Q9NWZ3); test: Inhibition of human IRAK4 at 0.1 uM relative to control
[34] = Half life in ICR mouse at 10 mg/kg, po; format: ADME, organism-based; details: in vivo
[35] = system: Receptor-type tyrosine-protein kinase FLT3 (Homo sapiens), P36888 [UNDEFINED MUTATION]; details: MV4-11
Description: Inhibition of FLT3 ITD homozygous mutant in human MV4-11 cells assessed as cell growth inhibition after 72 hrs by MTS assay

[36] = system: RAF proto-oncogene serine/threonine-protein kinase (Homo sapiens), P04049 [Y340D,Y341D]; test: Inhibition of human RAF1 Y340D/Y341D double mutant at 0.1 uM relative to control
[37] = AUC (0 to infinity) in ICR mouse at 10 mg/kg, po; format: ADME, organism-based; set-up: dose 10 mg/kg, time infinity, route oral; details: in vivo
[38] = target: CDK2/Cyclin A2 (Homo sapiens) (UniProt P24941+P20248); test: Inhibition of human CDK2/cyclin A at 0.1 uM relative to control; format: protein-complex assay
[39] = system: Receptor-type tyrosine-protein kinase FLT3 (Homo sapiens), P36888 [D835Y]
[40] = target: Vascular endothelial growth factor receptor 2 (Homo sapiens, UniProt P35968); details: 0.1 uM
Description: Inhibition of human KDR at 0.1 uM relative to control

Chain of Serine/threonine-protein kinase Chk1 (Homo sapiens) (O14757 whole entry): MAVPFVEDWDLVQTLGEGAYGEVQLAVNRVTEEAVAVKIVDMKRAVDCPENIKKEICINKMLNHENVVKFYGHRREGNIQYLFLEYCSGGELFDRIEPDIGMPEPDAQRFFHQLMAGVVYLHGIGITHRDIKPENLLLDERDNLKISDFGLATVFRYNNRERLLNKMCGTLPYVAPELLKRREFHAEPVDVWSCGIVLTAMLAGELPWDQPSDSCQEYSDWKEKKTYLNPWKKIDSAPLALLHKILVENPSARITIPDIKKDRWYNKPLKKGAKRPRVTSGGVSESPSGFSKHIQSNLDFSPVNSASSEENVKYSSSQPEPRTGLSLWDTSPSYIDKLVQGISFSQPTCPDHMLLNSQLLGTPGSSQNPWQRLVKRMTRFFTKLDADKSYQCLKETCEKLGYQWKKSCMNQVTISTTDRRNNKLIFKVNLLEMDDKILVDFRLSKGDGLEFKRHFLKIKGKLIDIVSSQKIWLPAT
Chain of RAC-alpha serine/threonine-protein kinase (Homo sapiens) (P31749 whole entry): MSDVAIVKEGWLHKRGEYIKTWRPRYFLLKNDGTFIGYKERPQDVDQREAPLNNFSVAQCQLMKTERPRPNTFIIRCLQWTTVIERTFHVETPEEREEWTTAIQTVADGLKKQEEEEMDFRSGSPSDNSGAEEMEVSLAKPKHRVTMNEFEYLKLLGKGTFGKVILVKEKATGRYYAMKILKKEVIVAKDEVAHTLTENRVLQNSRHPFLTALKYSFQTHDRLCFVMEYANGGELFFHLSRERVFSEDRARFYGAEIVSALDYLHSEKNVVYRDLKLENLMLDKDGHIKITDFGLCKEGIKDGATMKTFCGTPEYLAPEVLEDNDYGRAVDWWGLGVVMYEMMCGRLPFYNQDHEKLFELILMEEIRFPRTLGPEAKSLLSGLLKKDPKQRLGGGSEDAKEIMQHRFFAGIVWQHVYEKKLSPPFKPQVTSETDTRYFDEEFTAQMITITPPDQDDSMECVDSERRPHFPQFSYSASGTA
Chain of Vascular endothelial growth factor receptor 1 (Homo sapiens) (P17948 whole entry): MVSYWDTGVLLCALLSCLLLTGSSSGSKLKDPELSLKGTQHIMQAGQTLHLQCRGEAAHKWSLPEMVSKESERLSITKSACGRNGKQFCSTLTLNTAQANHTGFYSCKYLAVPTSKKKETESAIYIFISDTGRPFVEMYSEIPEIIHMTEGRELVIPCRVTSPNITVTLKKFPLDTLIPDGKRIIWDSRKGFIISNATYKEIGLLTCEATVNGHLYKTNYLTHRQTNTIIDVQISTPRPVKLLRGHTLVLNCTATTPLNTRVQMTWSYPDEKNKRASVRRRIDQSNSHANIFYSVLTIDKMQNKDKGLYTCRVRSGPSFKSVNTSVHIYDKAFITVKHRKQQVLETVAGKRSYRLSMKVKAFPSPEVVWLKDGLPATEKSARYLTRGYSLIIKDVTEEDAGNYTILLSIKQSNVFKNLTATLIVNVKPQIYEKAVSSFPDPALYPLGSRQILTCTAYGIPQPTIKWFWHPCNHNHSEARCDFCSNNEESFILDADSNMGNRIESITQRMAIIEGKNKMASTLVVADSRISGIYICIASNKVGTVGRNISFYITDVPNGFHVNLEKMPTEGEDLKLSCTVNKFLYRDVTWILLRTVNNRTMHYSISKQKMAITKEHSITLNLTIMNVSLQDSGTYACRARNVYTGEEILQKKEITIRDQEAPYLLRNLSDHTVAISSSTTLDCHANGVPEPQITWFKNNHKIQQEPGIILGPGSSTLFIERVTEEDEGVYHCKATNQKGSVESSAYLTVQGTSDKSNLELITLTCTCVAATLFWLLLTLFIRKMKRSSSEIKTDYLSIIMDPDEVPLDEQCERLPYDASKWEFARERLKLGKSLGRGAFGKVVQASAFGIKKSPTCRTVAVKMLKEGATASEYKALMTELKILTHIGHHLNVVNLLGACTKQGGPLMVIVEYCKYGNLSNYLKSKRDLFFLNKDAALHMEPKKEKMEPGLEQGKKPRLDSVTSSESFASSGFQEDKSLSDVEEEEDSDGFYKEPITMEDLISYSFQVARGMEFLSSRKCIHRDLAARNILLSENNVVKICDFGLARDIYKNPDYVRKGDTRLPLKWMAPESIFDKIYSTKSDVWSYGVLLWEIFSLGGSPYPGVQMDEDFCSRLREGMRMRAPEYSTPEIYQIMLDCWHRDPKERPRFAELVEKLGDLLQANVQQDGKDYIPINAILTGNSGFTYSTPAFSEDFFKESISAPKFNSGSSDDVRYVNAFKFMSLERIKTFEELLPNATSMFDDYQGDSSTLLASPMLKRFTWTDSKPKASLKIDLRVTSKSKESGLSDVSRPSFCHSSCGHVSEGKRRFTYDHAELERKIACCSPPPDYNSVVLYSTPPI
Chain of Proto-oncogene tyrosine-protein kinase receptor Ret (Homo sapiens), P07949 [V804L] (P07949 whole entry V804L): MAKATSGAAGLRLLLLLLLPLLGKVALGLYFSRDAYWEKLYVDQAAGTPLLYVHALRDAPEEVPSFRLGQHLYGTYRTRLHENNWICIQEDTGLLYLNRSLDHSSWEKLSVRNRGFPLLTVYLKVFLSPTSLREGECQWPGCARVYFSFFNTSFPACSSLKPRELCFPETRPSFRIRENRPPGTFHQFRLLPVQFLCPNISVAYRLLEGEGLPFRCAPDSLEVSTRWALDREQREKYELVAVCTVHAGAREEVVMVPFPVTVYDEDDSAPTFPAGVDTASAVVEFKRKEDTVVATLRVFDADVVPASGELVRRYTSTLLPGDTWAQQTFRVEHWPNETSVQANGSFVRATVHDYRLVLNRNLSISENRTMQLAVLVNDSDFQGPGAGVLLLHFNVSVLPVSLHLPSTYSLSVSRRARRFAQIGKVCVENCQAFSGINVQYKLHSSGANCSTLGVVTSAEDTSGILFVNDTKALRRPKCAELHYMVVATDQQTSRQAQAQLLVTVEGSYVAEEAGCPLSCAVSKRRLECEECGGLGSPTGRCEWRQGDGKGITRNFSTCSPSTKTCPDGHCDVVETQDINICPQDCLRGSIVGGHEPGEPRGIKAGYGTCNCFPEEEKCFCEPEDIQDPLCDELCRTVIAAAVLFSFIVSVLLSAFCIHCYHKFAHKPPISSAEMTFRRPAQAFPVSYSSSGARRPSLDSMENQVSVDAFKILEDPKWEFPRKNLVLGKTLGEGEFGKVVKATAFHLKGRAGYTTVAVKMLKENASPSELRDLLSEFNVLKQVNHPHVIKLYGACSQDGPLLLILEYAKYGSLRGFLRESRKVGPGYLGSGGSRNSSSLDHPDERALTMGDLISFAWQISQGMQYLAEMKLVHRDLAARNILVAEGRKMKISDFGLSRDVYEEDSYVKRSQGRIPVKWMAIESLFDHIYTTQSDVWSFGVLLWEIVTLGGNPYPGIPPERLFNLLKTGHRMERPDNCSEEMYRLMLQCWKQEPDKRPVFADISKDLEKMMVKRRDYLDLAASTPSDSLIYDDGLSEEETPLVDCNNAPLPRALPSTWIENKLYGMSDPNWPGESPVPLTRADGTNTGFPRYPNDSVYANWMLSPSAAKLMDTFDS
Chain of Platelet-derived growth factor receptor alpha (Homo sapiens), P16234 [D842V] (P16234 whole entry D842V): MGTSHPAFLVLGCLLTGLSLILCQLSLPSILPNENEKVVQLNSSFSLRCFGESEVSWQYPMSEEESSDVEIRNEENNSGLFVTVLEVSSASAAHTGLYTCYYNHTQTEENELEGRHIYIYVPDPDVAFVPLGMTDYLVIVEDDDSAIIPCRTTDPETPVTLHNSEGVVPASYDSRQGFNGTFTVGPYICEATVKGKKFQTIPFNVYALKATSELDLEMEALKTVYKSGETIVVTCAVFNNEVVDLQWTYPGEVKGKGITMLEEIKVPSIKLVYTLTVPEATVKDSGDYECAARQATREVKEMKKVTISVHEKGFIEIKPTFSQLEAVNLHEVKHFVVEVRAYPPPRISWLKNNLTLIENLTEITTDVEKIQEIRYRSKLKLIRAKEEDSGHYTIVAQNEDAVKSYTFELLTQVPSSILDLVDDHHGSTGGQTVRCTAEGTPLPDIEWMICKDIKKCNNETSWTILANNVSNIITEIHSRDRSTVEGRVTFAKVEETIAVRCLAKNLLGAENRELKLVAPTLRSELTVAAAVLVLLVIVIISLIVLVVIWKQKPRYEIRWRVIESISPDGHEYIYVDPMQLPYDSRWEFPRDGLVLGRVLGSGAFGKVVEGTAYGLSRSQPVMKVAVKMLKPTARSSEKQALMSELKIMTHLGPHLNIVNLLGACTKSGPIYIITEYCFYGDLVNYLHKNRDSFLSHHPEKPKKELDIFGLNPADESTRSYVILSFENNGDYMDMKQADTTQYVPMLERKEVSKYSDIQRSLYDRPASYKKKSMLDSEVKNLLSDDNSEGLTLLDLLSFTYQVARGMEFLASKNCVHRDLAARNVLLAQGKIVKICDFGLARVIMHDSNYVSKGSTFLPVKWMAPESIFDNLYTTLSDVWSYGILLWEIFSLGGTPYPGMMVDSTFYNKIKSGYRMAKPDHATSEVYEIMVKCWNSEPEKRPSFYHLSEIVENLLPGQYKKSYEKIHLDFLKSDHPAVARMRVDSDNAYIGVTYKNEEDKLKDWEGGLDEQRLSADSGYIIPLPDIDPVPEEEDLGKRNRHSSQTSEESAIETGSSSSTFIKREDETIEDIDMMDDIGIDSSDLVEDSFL
Chain of Tyrosine-protein kinase Fyn (Homo sapiens) (P06241 2-537 limits assumed): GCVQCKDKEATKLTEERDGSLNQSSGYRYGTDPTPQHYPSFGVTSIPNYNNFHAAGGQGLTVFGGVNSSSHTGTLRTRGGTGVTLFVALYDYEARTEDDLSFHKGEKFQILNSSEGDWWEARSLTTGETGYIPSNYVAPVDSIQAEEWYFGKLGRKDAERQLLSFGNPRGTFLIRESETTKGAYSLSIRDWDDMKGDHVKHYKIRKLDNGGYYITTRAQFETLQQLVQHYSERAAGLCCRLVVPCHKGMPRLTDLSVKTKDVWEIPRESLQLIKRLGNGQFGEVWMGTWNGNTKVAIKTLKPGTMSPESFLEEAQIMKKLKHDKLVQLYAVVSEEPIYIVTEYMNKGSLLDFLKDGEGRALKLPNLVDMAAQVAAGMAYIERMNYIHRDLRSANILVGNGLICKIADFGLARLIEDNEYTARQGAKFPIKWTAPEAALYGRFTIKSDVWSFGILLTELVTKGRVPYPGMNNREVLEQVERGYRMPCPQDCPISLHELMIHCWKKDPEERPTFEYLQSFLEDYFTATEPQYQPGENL
Chain of Proto-oncogene tyrosine-protein kinase receptor Ret (Homo sapiens), P07949 [Y791F] (P07949 whole entry Y791F): as the sequence (P07949 whole entry V804L) above, with Y791F, L804V counted along it

CCc1cc(NC(=O)Nc2ccc(-c3cnc(Nc4cc(N5CCN(CC)CC5)nc(C)n4)s3)cc2)no1
inhibition [1]: 46% | inhibition [2]: 21% | Activity (Mus musculus [3]): 90% | inhibition [4]: 72% | IC50 [5]: 10 nM | IC50 [6]: 10 nM | Cmax [7]: 122 ng/mL | inhibition [8]: 91% | Vd [9]: 8.2 L/kg | half-life [10]: 4.3 h | Activity (MV4-11 [11]): Active | inhibition [12]: 2% | inhibition [13]: 65% | GI50 [14]: 110 nM | inhibition [15]: 82% | inhibition [16]: 44% | inhibition [17]: 44% | Activity (Mus musculus [18]): Non-toxic | IC50 [19]: 10 nM | inhibition [20]: 17% | inhibition [21]: -7% | inhibition [22]: 64% | inhibition [23]: -3% | Vd [24]: 21 L/kg | inhibition [25]: 28% | inhibition [26]: 86% | GI50 [27]: 38 nM | TGI (MV4-11 [28]): Active | inhibition [29]: 0% | bioavailability [30]: 35% | inhibition [31]: 15% | inhibition [32]: 2% | inhibition [33]: 61% | half-life [34]: 1.8 h | GI50 [35]: 1 nM | inhibition [36]: 21% | AUC(0-inf) [37]: 942 ng·h/mL | inhibition [38]: 4% | GI50 [39]: 6 nM | inhibition [40]: 85%
